The numbers were not newly measured in US7022306B1, “Process for the production of hydrogen” (UOP LLC, priority 2003, dated 2006), which cites them from elsewhere.

Like-named read-outs stand apart in the source and are kept apart here.

Data set [1] deals with Rat.
For data set [2], the system named is Rat. This is another data set of the same source.

With `C` [Methane], the “Toxicity LC50 (mg/liter) Inhalation-Rat” value in the data set with Rat [1] was more than 5 mg/L.

Consider `CCCCC` [Pentane], for which, in the data set on Rat [2], the “Toxicity LD50 (mg/kg) Oral-Rat” value is more than 2000 mg/kg.

As to `CC(C)O` [Isopropanol], the “Toxicity LD50 (mg/kg) Oral-Rat” value with Rat [2] was 5045 mg/kg.

Turning to `CC(C)OC(C)C` [Isopropylether], in the data set with Rat [2], the “Toxicity LD50 (mg/kg) Oral-Rat” value was 8470 mg/kg.

As to `CCCC` [Butane], in the data set on Rat [1] (for 4 hours), the “Toxicity LC50 (mg/liter) Inhalation-Rat” value was 658 for 4 hours mg/liter.

Consider `OC[C@@H](O)[C@@H](O)[C@H](O)[C@@H](O)CO` [Sorbitol], for which, in the data set with Rat [2], the “Toxicity LD50 (mg/kg) Oral-Rat” value is 15900 mg/kg.
